Results: patent US5869487A, “Pyrido[3,4-B]pyrazines for use as thrombin inhibitors” (Merck & Co., Inc., priority 1997, dated 1999)

Target: T1, human α-thrombin (Homo sapiens, UniProt P00734)
T1 construct: Assays of human α-thrombin
Experiment: In vitro assay for determining proteinase inhibition (human α-thrombin)
Type: biochemical
Settings: 25° C., 0.05M TRIS buffer pH 7.4, 0.15M NaCl, 0.1% PEG; sar-PR-pna or Z-GPR-afc substrate
Method: In vitro assay for determining proteinase inhibition
Assays of human α-thrombin and human trypsin were performed at 25° C. in 0.05M TRIS buffer pH 7.4, 0.15M NaCl, 0.1% PEG. Trypsin assays also contained 1 mM CaCl2.
In assays wherein rates of hydrolysis of a p-nitroanilide (pna) substrate were determined, a Thermomax 96-well plate reader was used to measure (at 405 nm) the time dependent appearance of p-nitroaniline. sar-PR-pna (sarcosine-Pro-Arg-p-nitroanilide) was used to assay human α-thrombin (Km =125 μM) and human trypsin (Km =59 μM). p-Nitroanilide substrate concentration was determined from measurements of absorbance at 342 nm using an extinction coefficient of 8270 cm^-1 M^-1.
In certain studies with potent inhibitors (Ki <10 nM) where the degree of inhibition of thrombin was high, a more sensitive activity assay was employed. In this assay the rate of thrombin catalyzed hydrolysis of the fluorogenic substrate Z-GPR-afc (Cbz-Gly-Pro-Arg-7-amino-4-trifluoromethylcoumarin) (Km =27 μM) was determined from the increase in fluorescence at 500 nm (excitation at 400 nm) associated with production of 7-amino-4-trifluoromethyl coumarin. Concentrations of stock solutions of Z-GPR-afc were determined from measurements of absorbance at 380 nm of the 7-amino-4-trifluoromethyl coumarin produced upon complete hydrolysis of an aliquot of the stock solution by thrombin.
Activity assays were performed by diluting a stock solution of substrate at least tenfold to a final concentration 0.5 Km into a solution containing enzyme or enzyme equilibrated with inhibitor. Times required to achieve equilibration between enzyme and inhibitor were determined in control experiments. Initial velocities of product formation in the absence (Vo) or presence of inhibitor (Vi) were measured. Assuming competitive inhibition, and that unity is negligible compared Km /[S], […] (where [S], [I], and e respectively represent the total concentrations, of substrate, inhibitor and enzyme), the equilibrium constant (Ki) for dissociation of the inhibitor from the enzyme can be obtained from the dependence of Vo /Vi on [I] shown in equation 1.

| Ki | SMILES |
| --- | --- |
| > 1 nM | Cc1nc(N)ccc1CNC(=O)Cn1c(C)cc2c(c1=O)NC(=O)[C@@H]1CCCCN21 |
| < 1 nM | Cc1cc2c(c(=O)n1CC(=O)NCc1ccc(N)nc1)NC(=O)[C@H](CC1CC1)N2C |
| < 1 nM | Cc1cc2c(c(=O)n1CC(=O)NCc1ccccc1OCC(=O)NC1CC1)NC(=O)[C@H](CC1CC1)N2C |

Further lines, the compound ahead of its results:

| SMILES | Ki |
| --- | --- |
| Cc1nc(N)ccc1CNC(=O)Cn1c(C)cc2c(c1=O)NC(=O)[C@H](CC1CC1)N2 | < 1 nM |
| Cc1cc2c(c(=O)n1CC(=O)NCc1cc(Cl)ccc1OCC(=O)NC1CC1)NC(=O)[C@H](Cc1ccccc1)N2 | < 1 nM |
| Cc1nc(N)ccc1CNC(=O)Cn1c(C)cc2c(c1=O)NC(=O)[C@H](Cc1ccccc1)N2 | < 1 nM |
| Cc1nc(N)ccc1CNC(=O)Cn1c(C)cc2c(c1=O)NC(=O)CN2Cc1ccccc1 | > 1 nM |
| Cc1nc(N)ccc1CNC(=O)Cn1c(C)cc2c(c1=O)NC(=O)[C@H](CC1CC1)N2C | < 1 nM |
